Test results: the NIST ThermoML archive (doi:10.1016/j.jct.2005.05.003)
Numbers after ± are expanded uncertainties.

Details: Liquid, Vibrating tube method

CO [methanol]
mass density (298.26 K, 235 kPa): 785.98 ± 0.49 kg/m3
mass density (298.26 K, 5000 kPa): 790.69 ± 0.5 kg/m3
mass density (298.26 K, 9999 kPa): 795.4 ± 0.51 kg/m3
mass density (298.26 K, 15013 kPa): 799.88 ± 0.53 kg/m3
mass density (298.26 K, 19987 kPa): 804.1 ± 0.54 kg/m3
mass density (298.26 K, 25008 kPa): 808.17 ± 0.56 kg/m3
mass density (298.26 K, 29997 kPa): 812.04 ± 0.57 kg/m3
mass density (298.26 K, 34991 kPa): 815.76 ± 0.59 kg/m3
mass density (298.26 K, 39981 kPa): 819.34 ± 0.61 kg/m3
mass density (323.22 K, 270 kPa): 762.14 ± 0.48 kg/m3
mass density (323.22 K, 4990 kPa): 767.53 ± 0.49 kg/m3
mass density (323.22 K, 9984 kPa): 772.87 ± 0.5 kg/m3
mass density (323.22 K, 14982 kPa): 777.91 ± 0.52 kg/m3
mass density (323.22 K, 19989 kPa): 782.69 ± 0.54 kg/m3
mass density (323.22 K, 24986 kPa): 787.21 ± 0.56 kg/m3
mass density (323.22 K, 29995 kPa): 791.53 ± 0.58 kg/m3
mass density (323.22 K, 34987 kPa): 795.64 ± 0.6 kg/m3
mass density (323.22 K, 39993 kPa): 799.6 ± 0.62 kg/m3
mass density (348.25 K, 366 kPa): 737.29 ± 0.46 kg/m3
mass density (348.25 K, 4987 kPa): 743.46 ± 0.48 kg/m3
mass density (348.25 K, 9986 kPa): 749.65 ± 0.5 kg/m3
mass density (348.25 K, 14991 kPa): 755.42 ± 0.52 kg/m3
mass density (348.25 K, 20004 kPa): 760.84 ± 0.54 kg/m3
mass density (348.25 K, 25020 kPa): 765.94 ± 0.56 kg/m3
mass density (348.25 K, 30013 kPa): 770.76 ± 0.59 kg/m3
mass density (348.25 K, 34989 kPa): 775.32 ± 0.61 kg/m3
mass density (348.25 K, 40000 kPa): 779.7 ± 0.64 kg/m3
mass density (373.26 K, 534 kPa): 710.55 ± 0.45 kg/m3
mass density (373.26 K, 4983 kPa): 717.67 ± 0.47 kg/m3
mass density (373.26 K, 9990 kPa): 724.99 ± 0.49 kg/m3
mass density (373.26 K, 14998 kPa): 731.69 ± 0.52 kg/m3
mass density (373.26 K, 19985 kPa): 737.88 ± 0.54 kg/m3
mass density (373.26 K, 24994 kPa): 743.68 ± 0.57 kg/m3
mass density (373.26 K, 29997 kPa): 749.13 ± 0.6 kg/m3
mass density (373.26 K, 35001 kPa): 754.27 ± 0.63 kg/m3
mass density (373.26 K, 39996 kPa): 759.14 ± 0.65 kg/m3
mass density (398.28 K, 934 kPa): 680.93 ± 0.44 kg/m3
mass density (398.28 K, 4984 kPa): 689 ± 0.46 kg/m3
mass density (398.28 K, 9998 kPa): 697.91 ± 0.49 kg/m3
mass density (398.28 K, 14986 kPa): 705.88 ± 0.52 kg/m3
mass density (398.28 K, 19987 kPa): 713.16 ± 0.55 kg/m3
mass density (398.28 K, 24992 kPa): 719.87 ± 0.58 kg/m3
mass density (398.28 K, 29991 kPa): 726.11 ± 0.61 kg/m3
mass density (398.28 K, 35005 kPa): 731.99 ± 0.64 kg/m3
mass density (398.28 K, 40004 kPa): 737.47 ± 0.68 kg/m3
